Entries after “also recorded” stand apart in the source; their conditions may differ. Where a SMILES comes first, the peptide text is derived from it. [ ]: non-standard residue; d: D form. 2Nal = N[C@@H](Cc1ccc2ccccc2c1)C(=O)O
Key:
Recombinant PLA2G1B = target: T1, Recombinant PLA2G1B (Homo sapiens, UniProt P04054); test: Bioassay: recombinant PLA2GIB-mediated inhibition of IL-7-induced nuclear translocation of phospho STAT5 in CD4 T cells (STED microscopy); format: cell-based
T1 construct: sPLA2GIB was produced in E. Coli; Inclusion bodies were solubilized in urea and afterwards renatured; made in house; host or cells: E. coli
T1 sequence (P04054 23-148): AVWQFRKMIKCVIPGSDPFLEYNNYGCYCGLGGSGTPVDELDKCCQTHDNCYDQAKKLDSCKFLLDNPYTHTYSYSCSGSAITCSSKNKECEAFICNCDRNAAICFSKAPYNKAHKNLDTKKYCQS
Description: FIG. 1: Peptide I inhibits sPLA2G1B: Recombinant PLA2G1B (75 nanoM) was first exposed 30 mn to indicated concentrations of Peptide I. The mixture was then applied in the bioassay described in Materials and Methods. % inhibition of IL-7-induced nuclear translocation of phospho STAT5 was measured by STED microscopy. The results of two experiments are shown.
FIG. 2: Calculation of IC50 of Peptide I: Experimental data were analyzed by Prism software in order to precisely calculate the IC50.
sPLA2GIB was produced in E. Coli. Inclusion bodies were solubilized in urea and afterwards renatured. sPLA2GIB was further purified by HPLC. Homogeneity of the preparations was verified by MassSpectrometry (Malditoff). The specific activity of the enzyme was always measured and compared to standard preparations.
(§1) Inhibition of IL-7-induced phosphorylated STAT5 nuclear translocation (NTpSTAT) was measured as follows: VP plasma (5 or 10%) was first incubated with purified HD CD4 T cells (20 min) before stimulation by IL-7 (2 nM, 15 min.). Cells were then plated on polylysine coated glass slides before fixation by PFA (1.5%) and permeabilization by methanol (90% at −20° C.). pSTAT5 was then stained by rabbit anti-STAT5 and labeled with goat anti-rabbit-Atto642. The cells were analyzed by pulsed STED microscopy and the number of nuclei expressing pSTAT5 were counted.
We first investigated the effects of different doses of Peptide I on the biological activity of recombinant PLA2GIB as tested in the bioassay described in Materials and Methods. […] The experiment was repeated twice. From the experimental data we derived the corresponding theoretical curve that gives the IC50. For Peptide I, IC 50 is about 4.9 microM (FIG. 2).

[1] = target: T2, PLA2 GIB contained in the plasma of viremic patients (Homo sapiens, UniProt P04054); test: Bioassay: inhibition of IL-7-induced NTpSTAT5 in healthy donor CD4 T cells by plasma/sera of viremic HIV-infected patients; format: cell-based
T2 construct: CD4 lymphocytes purified from healthy donors were exposed to sera from viremic HIV-infected patients at 1% or 3% dilution; from tissue; host or cells: plasma/sera of viremic HIV-infected patients
T2 sequence (P04054 23-148): as above
Description: FIG. 3: Peptide I restores the activity of CD4 lymphocytes: CD4 lymphocytes purified from healthy donors were exposed to sera from viremic HIV-infected patients at 1% or 3% dilution. […] Five sera were tested and the results are given as the median+/−SD.
Viremic patients (VP) included in the study had been HIV-positive for more than one year. […] All blood samples from VP were drawn at Hôpital Bicêtre or Centre Hospitalier de Gonesse.
as §1
We have shown that PLA2 GIB contained in the plasma of viremic patients induces a blockade of IL-7-induced nuclear translocation of phospho STAT5 (NT pSTAT5). […] Here we tested the effects of Peptide I on the capacity of the sera from VP to block IL-7-induced NTpSTAT5.
The effect of plasma from various HIV viremic patients (at least 5) were titrated on the inhibition of IL-7-induced NTpSTAT5. […]

CC(C)C[C@@H]1NC(=O)[C@H](Cc2ccc3ccccc3c2)NC(=O)[C@H](CCCNC(=N)N)NC(=O)[C@H](Cc2ccc3ccccc3c2)NC(=O)[C@H](CO)NC1=O [Peptide I, cyclic(2-NaphthylAla-Leu-Ser-2-NaphthylAla-Arg)] (cyclo([2Nal]LS[2Nal]R); ring closure inferred)
inhibitory effect on recombinant PLA2GIB activity (Recombinant PLA2G1B; 5 microM Peptide I): effective | inhibitory effect on recombinant PLA2GIB activity (Recombinant PLA2G1B; 10 microM Peptide I): very strong | IC50 (Recombinant PLA2G1B; recombinant PLA2G1B 75 nanoM exposed 30 mn to Peptide I, calculated with Prism from two experiments, read-out: IC50 (inhibition of recombinant PLA2GIB biological activity)): ~4.9 µM | maximum inhibition (plateau) with the recombinant enzyme (Recombinant PLA2G1B; recombinant pure enzyme in serum free buffer): around 80% | reversal of sera-induced inhibition of IL-7-induced nuclear translocation of pSTAT5 ([1]; 15 microM Peptide I, sera from viremic HIV-infected patients at 1% or 3% dilution, five sera): totally reversed this inhibition; also recorded: completely reverted the activity of the sera | inhibition achieved when the plasma is used ([1]; plasma of viremic patients): around 100%
